Assay results as given in ChEMBL document CHEMBL3045679, “Microwave-assisted synthesis and pharmacological studies of novel 5-deazaalloxazine derivatives” (2012).
Converted amounts (≈) assume the structure as drawn. The source made the active and inactive calls. No cut-off for these calls is given here.

Tests used:
Escherichia coli [1] = assay: Antibacterial activity against Escherichia coli NCIM 2065 at 500 ug/disk after 24 hr by disk diffusion method; assay type: functional; conditions: NCIM 2065, 24 h, read-out: DIZ
Klebsiella aerogenes [2] = assay: Antibacterial activity against Enterobacter aerogenes NCIM 2239 at 1000 ug/disk after 24 hr by disk diffusion method; assay type: functional; conditions: NCIM 2239, 24 h, read-out: DIZ
Aspergillus niger [3] = assay: Antifungal activity against Aspergillus niger NCIM 1196 at 500 ug/disk after 72 hr by disk diffusion method; assay type: functional; conditions: for zone of inhibition at 500 µg/disc: NCIM 1196, 72 h, read-out: DIZ
Escherichia coli [4] = assay: Antibacterial activity against Escherichia coli NCIM 2065 after 24 hr by broth dilution assay; assay type: functional; conditions: NCIM 2065, 24 h
Penicillium chrysogenum [5] = assay: Antifungal activity against Penicillium chrysogenum NCIM 707 at 500 ug/disk after 72 hr by disk diffusion method; assay type: functional
Klebsiella aerogenes [6] = assay: Antibacterial activity against Enterobacter aerogenes NCIM 2239 after 24 hr by broth dilution assay; assay type: functional; conditions: NCIM 2239, 24 h
Bacillus subtilis [7] = assay: Antibacterial activity against Bacillus subtilis NCIM 2063 at 1000 ug/disk after 24 hr by disk diffusion method; assay type: functional; conditions: NCIM 2063, 24 h, read-out: DIZ
Streptomyces albus [8] = assay: Antibacterial activity against Streptomyces albus NCIM 2178 at 1000 ug/disk after 24 hr by disk diffusion method; assay type: functional
Aspergillus flavus [9] = assay: Antifungal activity against Aspergillus flavus NCIM 535 after 72 hr by broth dilution assay; assay type: functional; conditions: NCIM 535, 72 h
Bacillus cereus [10] = assay: Antibacterial activity against Bacillus cereus NCIM 2155 after 24 hr by broth dilution assay; assay type: functional; conditions: NCIM 2155, 24 h
Lipomyces lipofer [11] = assay: Antifungal activity against Lipomyces lipofer NCIM 3252 at 1000 ug/disk after 72 hr by disk diffusion method; assay type: functional; conditions: NCIM 3252, 72 h, read-out: DIZ
Pseudomonas aeruginosa [12] = assay: Antibacterial activity against Pseudomonas aeruginosa NCIM 2200 at 1000 ug/disk after 24 hr by disk diffusion method; assay type: functional; conditions: NCIM 2200, 24 h, read-out: DIZ
Aspergillus flavus [13] = assay: Antifungal activity against Aspergillus flavus NCIM 535 at 500 ug/disk after 72 hr by disk diffusion method; assay type: functional
Penicillium chrysogenum [14] = assay: Antifungal activity against Penicillium chrysogenum NCIM 707 at 1000 ug/disk after 72 hr by disk diffusion method; assay type: functional; conditions: NCIM 707, 72 h, read-out: DIZ
Candida albicans [15] = assay: Antifungal activity against Candida albicans NCIM 3471 at 500 ug/disk after 72 hr by disk diffusion method; assay type: functional
Bacillus subtilis [16] = assay: Antibacterial activity against Bacillus subtilis NCIM 2063 after 24 hr by broth dilution assay; assay type: functional; conditions: NCIM 2063, 24 h
Escherichia coli [17] = assay: Antibacterial activity against Escherichia coli NCIM 2065 at 1000 ug/disk after 24 hr by disk diffusion method; assay type: functional; conditions: NCIM 2065, 24 h, read-out: DIZ
Pseudomonas aeruginosa [18] = assay: Antibacterial activity against Pseudomonas aeruginosa NCIM 2200 after 24 hr by broth dilution assay; assay type: functional; conditions: NCIM 2200, 24 h
Bacillus cereus [19] = assay: Antibacterial activity against Bacillus cereus NCIM 2155 at 500 ug/disk after 24 hr by disk diffusion method; assay type: functional; conditions: for zone of inhibition at 500 µg/disc: NCIM 2155, 24 h, read-out: DIZ
Lipomyces lipofer [20] = assay: Antifungal activity against Lipomyces lipofer NCIM 3252 at 500 ug/disk after 72 hr by disk diffusion method; assay type: functional; conditions: NCIM 3252, 72 h, read-out: DIZ
Bacillus subtilis [21] = assay: Antibacterial activity against Bacillus subtilis NCIM 2063 at 500 ug/disk after 24 hr by disk diffusion method; assay type: functional
Rhodotorula mucilaginosa [22] = assay: Antifungal activity against Rhodotorula mucilaginosa NCIM 3174 at 1000 ug/disk after 72 hr by disk diffusion method; assay type: functional; conditions: NCIM 3174, 72 h, read-out: DIZ
Lipomyces lipofer [23] = assay: Antifungal activity against Lipomyces lipofer NCIM 3252 after 72 hr by broth dilution assay; assay type: functional; conditions: NCIM 3252, 72 h
Klebsiella aerogenes [24] = assay: Antibacterial activity against Enterobacter aerogenes NCIM 2239 at 500 ug/disk after 24 hr by disk diffusion method; assay type: functional
Aspergillus niger [25] = assay: Antifungal activity against Aspergillus niger NCIM 1196 after 72 hr by broth dilution assay; assay type: functional; conditions: NCIM 1196, 72 h
Rhodotorula mucilaginosa [26] = assay: Antifungal activity against Rhodotorula mucilaginosa NCIM 3174 at 500 ug/disk after 72 hr by disk diffusion method; assay type: functional
Streptomyces albus [27] = assay: Antibacterial activity against Streptomyces albus NCIM 2178 at 500 ug/disk after 24 hr by disk diffusion method; assay type: functional, organism-based
Aspergillus flavus [28] = assay: Antifungal activity against Aspergillus flavus NCIM 535 at 1000 ug/disk after 72 hr by disk diffusion method; assay type: functional; conditions: for zone of inhibition at 1000 µg/disc: NCIM 535, 72 h, read-out: DIZ
Candida albicans [29] = assay: Antifungal activity against Candida albicans NCIM 3471 at 1000 ug/disk after 72 hr by disk diffusion method; assay type: functional
Pseudomonas aeruginosa [30] = assay: Antibacterial activity against Pseudomonas aeruginosa NCIM 2200 at 500 ug/disk after 24 hr by disk diffusion method; assay type: functional; conditions: NCIM 2200, 24 h, read-out: DIZ
Aspergillus niger [31] = assay: Antifungal activity against Aspergillus niger NCIM 1196 at 1000 ug/disk after 72 hr by disk diffusion method; assay type: functional; conditions: for zone of inhibition at 1000 µg/disc: NCIM 1196, 72 h, read-out: DIZ
Bacillus cereus [32] = assay: Antibacterial activity against Bacillus cereus NCIM 2155 at 1000 ug/disk after 24 hr by disk diffusion method; assay type: functional; conditions: NCIM 2155, 24 h, read-out: DIZ
Rhodotorula mucilaginosa [33] = assay: Antifungal activity against Rhodotorula mucilaginosa NCIM 3174 after 72 hr by broth dilution assay; assay type: functional; conditions: NCIM 3174, 72 h
Penicillium chrysogenum [34] = assay: Antifungal activity against Penicillium chrysogenum NCIM 707 after 72 hr by broth dilution assay; assay type: functional; conditions: NCIM 707, 72 h
Candida albicans [35] = assay: Antifungal activity against Candida albicans NCIM 3471 after 72 hr by broth dilution assay; assay type: functional; conditions: NCIM 3471, 72 h

SMILES	zone of inhibition at 500 µg/disc (Escherichia coli [1]) [mm]	zone of inhibition at 1000 µg/disc (Klebsiella aerogenes [2]) [mm]	MIC (Escherichia coli [4]) [µg/mL]	diameter of the inhibition zone (DIZ) (Penicillium chrysogenum [5])	MIC (Klebsiella aerogenes [6]) [µg/mL]	zone of inhibition at 1000 µg/disc (Bacillus subtilis [7]) [mm]	diameter of the inhibition zone (DIZ) (Streptomyces albus [8])	MIC (Bacillus cereus [10]) [µg/mL]	zone of inhibition at 1000 µg/disc (Lipomyces lipofer [11]) [mm]	zone of inhibition at 1000 µg/disc (Pseudomonas aeruginosa [12]) [mm]	diameter of the inhibition zone (DIZ) (Aspergillus flavus [13])	zone of inhibition at 1000 µg/disc (Penicillium chrysogenum [14]) [mm]	MIC (Bacillus subtilis [16]) [µg/mL]	zone of inhibition at 1000 µg/disc (Escherichia coli [17]) [mm]	MIC (Pseudomonas aeruginosa [18]) [µg/mL]	zone of inhibition at 500 µg/disc (Lipomyces lipofer [20]) [mm]	zone of inhibition at 1000 µg/disc (Rhodotorula mucilaginosa [22]) [mm]	MIC (Lipomyces lipofer [23]) [µg/mL]	diameter of the inhibition zone (DIZ) (Rhodotorula mucilaginosa [26])	diameter of the inhibition zone (DIZ) (Streptomyces albus [27])	also measured
COc1cccc2cc3c(=O)[nH]c(=S)[nH]c3nc12	9	12	62.5 (≈ 241 µM)	inactive	31.2 (≈ 120 µM)	13	inactive	62.5 (≈ 241 µM)	14	13	inactive	12	7.8 (≈ 30.1 µM)	11	7.8 (≈ 30.1 µM)	11	9	125 (≈ 482 µM)	inactive	inactive	zone of inhibition at 500 µg/disc (Aspergillus niger [3]): 8 mm; MIC (Aspergillus flavus [9]): 125 µg/mL (≈ 482 µM); diameter of the inhibition zone (DIZ) (Candida albicans [15]): inactive; zone of inhibition at 500 µg/disc (Bacillus cereus [19]): 9 mm; zone of inhibition at 500 µg/disc (Bacillus subtilis [21]; NCIM 2063, 24 h, read-out: DIZ): 10 mm; diameter of the inhibition zone (DIZ) (Klebsiella aerogenes [24]): inactive; MIC (Aspergillus niger [25]): 125 µg/mL (≈ 482 µM); zone of inhibition at 1000 µg/disc (Aspergillus flavus [28]): 13 mm; diameter of the inhibition zone (DIZ) (Candida albicans [29]): inactive; zone of inhibition at 500 µg/disc (Pseudomonas aeruginosa [30]): 10 mm; zone of inhibition at 1000 µg/disc (Aspergillus niger [31]): 10 mm; zone of inhibition at 1000 µg/disc (Bacillus cereus [32]): 12 mm
COc1ccc2nc3[nH]c(=O)[nH]c(=O)c3cc2c1	10	13	7.8 (≈ 32.1 µM)	inactive	3.9 (≈ 16 µM)	9	inactive	31.2 (≈ 128 µM)	11	13	inactive	9	62.5 (≈ 257 µM)	12	31.2 (≈ 128 µM)	9	10	31.2 (≈ 128 µM)	inactive	inactive	diameter of the inhibition zone (DIZ) (Aspergillus niger [3]): inactive; MIC (Rhodotorula mucilaginosa [33]): 15.6 µg/mL (≈ 64.1 µM); MIC (Penicillium chrysogenum [34]): 62.5 µg/mL (≈ 257 µM); zone of inhibition at 500 µg/disc (Candida albicans [15]; NCIM 3471, 72 h, read-out: DIZ): 9 mm; MIC (Candida albicans [35]): 31.2 µg/mL (≈ 128 µM); zone of inhibition at 500 µg/disc (Bacillus cereus [19]): 9 mm; diameter of the inhibition zone (DIZ) (Bacillus subtilis [21]): inactive; zone of inhibition at 500 µg/disc (Klebsiella aerogenes [24]; NCIM 2239, 24 h, read-out: DIZ): 10 mm; zone of inhibition at 1000 µg/disc (Aspergillus flavus [28]): 9 mm; zone of inhibition at 1000 µg/disc (Candida albicans [29]; NCIM 3471, 72 h, read-out: DIZ): 10 mm; zone of inhibition at 500 µg/disc (Pseudomonas aeruginosa [30]): 9 mm; diameter of the inhibition zone (DIZ) (Aspergillus niger [31]): inactive; zone of inhibition at 1000 µg/disc (Bacillus cereus [32]): 12 mm
COc1ccc2nc3[nH]c(=S)[nH]c(=O)c3cc2c1	9	13	31.2 (≈ 120 µM)	inactive	15.6 (≈ 60.2 µM)	11	inactive	125 (≈ 482 µM)	12	15	inactive	12	62.5 (≈ 241 µM)	13	3.9 (≈ 15 µM)	11	8	125 (≈ 482 µM)	inactive	inactive	zone of inhibition at 500 µg/disc (Aspergillus niger [3]): 11 mm; MIC (Penicillium chrysogenum [34]): 125 µg/mL (≈ 482 µM); diameter of the inhibition zone (DIZ) (Candida albicans [15]): inactive; diameter of the inhibition zone (DIZ) (Bacillus cereus [19]): inactive; diameter of the inhibition zone (DIZ) (Bacillus subtilis [21]): inactive; diameter of the inhibition zone (DIZ) (Klebsiella aerogenes [24]): inactive; MIC (Aspergillus niger [25]): 7.8 µg/mL (≈ 30.1 µM); diameter of the inhibition zone (DIZ) (Aspergillus flavus [28]): inactive; diameter of the inhibition zone (DIZ) (Candida albicans [29]): inactive; zone of inhibition at 500 µg/disc (Pseudomonas aeruginosa [30]): 9 mm; zone of inhibition at 1000 µg/disc (Aspergillus niger [31]): 13 mm; zone of inhibition at 1000 µg/disc (Bacillus cereus [32]): 10 mm
